Read-outs that look alike come from different tables or passages of the source.
What was measured:
[1] = system: P. berghei strain GFP-ANKA; test: In vivo antimalarial efficacy study in infected NMRI mice; settings: female NMRI mice infected with P. berghei GFP-ANKA, single oral dose of 100 mg/kg 24 h after infection, parasitemia 48 h after drug treatment (day 3); for inhibition in vivo at 100 mg/kg: Plasmodium berghei, read-out: Activity (inhibition of parasitemia) expressed as a percent relative to the control group
Experimental: In Vivo Antimalarial Efficacy Studies
In vivo antimalarial activity is assessed for groups of three female NMRI mice (20-22 g) intravenously infected on day 0 with P. berghei strain GFP-ANKA (0.2 mL heparinized saline suspension containing 2×10^7 parasitized erythrocytes). In control mice, parasitemia typically rises to approximately 40% by day 3 after infection. Compounds are formulated in Tween 80/ethanol (7%/3%) usually at concentrations of 10 mg/mL. Compounds are administered in a volume of 10 mL/kg orally as single doses (1×100 mg/kg, 24 h after infection). 48 h after drug treatment (day 3 post-infection), 1 μl tail blood is taken, resuspended in 1 mL PBS buffer and parasitemia determined with a FACScan (Becton Dickinson) by counting 100′000 red blood cells. Activity is calculated as the difference between the mean value of the control group and treated groups expressed as a percent relative to the control group.

[2] = system: erythrocytic stages of P. falciparum NF54; test: Plasmodium falciparum in vitro assay, [3H] hypoxanthine incorporation; type: cell-based; settings: P. falciparum NF54 in human red blood cells, 48 h + 24 h incubation
Experimental: In Vitro Antimalarial Activity: Plasmodium falciparum In Vitro Assay In vitro activity against erythrocytic stages of P. falciparum in human red blood cells is determined using a [^3H] hypoxanthine incorporation assay. […] Thereafter, the parasite cultures incubated in screening medium containing washed human red blood cells at 2.5% hematocrit (0.3% parasitemia) are added to the serially diluted compounds and incubated in a humidifying atmosphere at 37° C., 4% CO2, 3% O2, and 93% N2. After 48 h, [^3H] hypoxanthine (0.5 μCi) is added to each well of a plate. The plates are incubated for a further 24 h under the same conditions then harvested with a Betaplate cell harvester (Wallac) and washed with distilled water. The dried filters are inserted into a plastic foil with 10 mL of scintillation fluid, and counted in a Betaplate liquid scintillation counter. IC50 values are calculated from sigmoidal inhibition curves using Microsoft Excel.

[3] = Plasmodium falciparum, Erythrocyte, 72 h, screening medium with Albumax (5 g/L), read-out: IC50 on NF54 (with Albumax)
[4] = Plasmodium falciparum, Erythrocyte, 72 h, screening medium with human serum (50% final concentration), read-out: IC50 on NF54 (with 50% Serum)

Compound | inhibition in vivo at 100 mg/kg [1] | IC50 [2, 3] | IC50 [2, 4] | Activity (inhibition of parasitemia) expressed as a percent relative to the control group [1] | IC50 ([2]; screening medium with Albumax (5 g/L), read-out: IC50 on NF54 (with Albumax)) | IC50 ([2]; screening medium with human serum (50% final concentration), read-out: IC50 on NF54 (with 50% Serum))
CC(=O)N1CCN(c2ccc(CN(C(=O)C=Cc3ccc(OC(C)C)cc3)[C@@H](Cc3ccccc3)C(=O)N3CCN(Cc4ccccc4)CC3)cc2)CC1 [Example 9, (S)-N-[4-(4-Acetyl-piperazin-1-yl)-benzyl]-N-[1-benzyl-2-(4-benzyl-piperazin-1-yl)-2-oxo-ethyl]-3-(4-isopropoxy-phenyl)-acrylamide] | 99.1% | 2.4 nM | 7.3 nM |  |  | 
CCc1ccc(C=CC(=O)N(Cc2ccc(N3CCN(C(C)=O)CC3)cc2)[C@@H](Cc2ccccc2)C(=O)N2CCN(Cc3ccc(N(C)C)cc3)CC2)cc1 [Example 20, (S)-N-[4-(4-Acetyl-piperazin-1-yl)-benzyl]-N-{1-benzyl-2-[4-(4-dimethylamino-benzyl)-piperazin-1-yl]-2-oxo-ethyl}-3-(4-ethyl-phenyl)-acrylamide] | 98.5% | 1.2 nM | 7.1 nM |  |  | 
(S)-N-[4-(4-Acetyl-piperazin-1-yl)-benzyl]-N-[1-benzyl-2-(4-{4-[(2-hydroxy-ethyl)-methyl-amino]-benzyl}-piperazin-1-yl)-2-oxo-ethyl]-3-(4-isopropyl-phenyl)-acrylamide [Example 61] |  |  |  | 98.8% | 1.2 nM | 6.7 nM
CC(=O)N1CCN(c2ccc(CN(C(=O)C=Cc3ccc(C(F)(F)F)cc3)[C@@H](Cc3ccccc3)C(=O)N3CCN(Cc4ccccc4)CC3)cc2)CC1 [Example 1, (S)-N-[4-(4-Acetyl-piperazin-1-yl)-benzyl]-N-[1-benzyl-2-(4-benzyl-piperazin-1-yl)-2-oxo-ethyl]-3-(4-trifluoromethyl-phenyl)-acrylamide, reference compound] | < 40% | 5.1 nM | 27.6 nM |  |  | 
CC(=O)N1CCN(c2ccc(CN(C(=O)C=Cc3ccc(OC(F)(F)F)cc3)[C@@H](Cc3ccccc3)C(=O)N3CCN(Cc4ccc(C#N)cc4)CC3)cc2)CC1 [Example 33, (S)-N-[4-(4-Acetyl-piperazin-1-yl)-benzyl]-N-{1-benzyl-2-[4-(4-cyano-benzyl)-piperazin-1-yl]-2-oxo-ethyl}-3-(4-trifluoromethoxy-phenyl)-acrylamide] | 97.4% | 3.3 nM | 10.9 nM |  |  | 
CC(=O)N1CCN(c2ccc(CN(C(=O)C=Cc3ccc(OC(C)C)cc3)[C@@H](Cc3ccccc3)C(=O)N3CCN(Cc4ccc(N(C)C)cc4)CC3)cc2)CC1 [Example 19, (S)-N-[4-(4-Acetyl-piperazin-1-yl)-benzyl]-N-{1-benzyl-2-[4-(4-dimethylamino-benzyl)-piperazin-1-yl]-2-oxo-ethyl}-3-(4-isopropoxy-phenyl)-acrylamide] | 99.2% | 2.6 nM | 9.3 nM |  |  | 
CC(=O)N1CCN(c2ccc(CN(C(=O)C=Cc3ccc(C(F)(F)F)cc3)[C@@H](Cc3ccccc3)C(=O)N3CCN(Cc4ccc(N(C)CCO)cc4)CC3)cc2)CC1 [Example 50, (S)-N-[4-(4-Acetyl-piperazin-1-yl)-benzyl]-N-[1-benzyl-2-(4-{4-[(2-hydroxy-ethyl)-methyl-amino]-benzyl}-piperazin-1-yl)-2-oxo-ethyl]-3-(4-trifluoromethyl-phenyl)-acrylamide] | 98% | 1.6 nM | 9.3 nM |  |  | 
CC(=O)N1CCN(c2ccc(CN(C(=O)C=Cc3ccc(OC(F)F)cc3)[C@@H](Cc3ccccc3)C(=O)N3CCN(Cc4ccc(Cl)cc4)CC3)cc2)CC1 [Example 41, (S)-N-[4-(4-Acetyl-piperazin-1-yl)-benzyl]-N-{1-benzyl-2-[4-(4-chloro-benzyl)-piperazin-1-yl]-2-oxo-ethyl}-3-(4-difluoromethoxy-phenyl)-acrylamide] | 71% | 2.9 nM | 12.5 nM |  |  | 

Reference: patent US8889688B2, “Piperazines as antimalarial agents” (Actelion Pharmaceuticals Ltd., priority 2011, dated 2014)
